Experimental data from patent US7687079B2, “Methods of treating ileus” (priority 2002, dated 2010).
“Also recorded” adds a separate entry of the source.

Tests used:
[1] = test system: IL-10 mRNA; assay: IL-10 mRNA in muscularis after IM (real time RT-PCR); assay type: in vivo, mouse
Experimental: Pro- and anti-inflammatory gene expression was determined by real time RT-PCR. The small intestinal muscularis externa was collected at 4 time points (3, 6, 12, and 24 hr) postoperatively and snap frozen in liquid nitrogen. Total RNA extraction was performed using the guanidium-thiocyanate phenol-chloroform extraction method as described in Eskandari et al. (Id.) RNA pellets were resuspended in RNA-secure resuspension solution (Ambion Inc., Austin, Tex.), followed by removal of potential contaminating DNA by treatment with DNase I (DNA-Free Kit, Ambion Inc., Austin, Tex.). Equal aliquots (5 μg) of total RNA from each sample were quantified by spectrophotometry (wavelength […]). Peak mRNA expression was quantified in duplicate by SYBR Green two-step, real-time RT-PCR. β-actin was used as the endogenous reference. Aliquoted RNA (40 ng) was subjected to first-strand complementary DNA (cDNA) synthesis using random hexamers (PE applied Biosystems, Foster City, Calif.) and Super Script II (Life Technologies, Rockville, Md.). Primers were taken from the literature or designed according to published sequences (Table 3). PCR reaction mixture was prepared using SYBR Green PCR Core Reagents (PE Applied Biosystems). Each sample was estimated in duplicate using the conditions recommended by the manufacturer. Real-time PCR data were plotted as the ΔRn fluorescence signal versus the cycle number. An arbitrary threshold was set to the midlinear portion of the log ΔRn cycle plot. The threshold cycle (CT) is defined as the cycle number at which the ΔRn, crosses this threshold. Quantification of mRNA expression was normalized to β-actin and calculated relative to control using the comparative CT method.
To exclude PCR amplification of contaminating genomic DNA, RT-negative controls (samples containing RNA which was not reverse transcribed) were included in each PCR reaction. Melting curve analyses were performed for each reaction to ensure amplification of specific product. In addition, gel electrophoresis were performed for the primers to confirm the absence of non-specific bands and that the amplicons were of the correct size. PCR amplification efficiency of each target cDNA was measured by determining the colinearity of serial dilutions. Serial 3-fold dilutions of cDNA were performed in triplicate for all primers. Standard curves were generated by plotting CT values against relative input copy number to validate the primers. Slopes of the standard curves of −3.2±0.3 with correlation coefficients of 0.99 were considered to be acceptable, having corresponding efficiencies of 100±10%. Analyses of Mediator Release from Intestinal Muscularis

[2] = test system: small intestinal circular muscle; assay: in vitro circular muscle contractility (spontaneous and bethanechol-stimulated) after SITx; assay type: in vivo, rat
Experimental: To determine whether CO is protective against ileus associated with small bowel transplantation, orthotopic SITx was performed in syngenic Lewis rats. SITx with caval drainage was performed using a previously described procedure. […] The graft was perfused via the aortic segment with 5 ml chilled Ringer's lactate solution, and the intestinal lumen was irrigated with 20 ml of cold saline solution containing 0.5% neomycin-sulfate (Sigma, St. Louis, Mo.). End-to-side anastomoses between the graft aorta and the recipient infrarenal aorta, and between the graft portal vein and recipient vena cava, were performed with 10-0 Novafil™ suture. The cold ischemic time was 1 hour. The entire recipient intestine was removed and the enteric continuity was restored by proximal and distal end-to-end intestinal anastomoses. Recipient animals were given 20 mg/day prophylactic cefamandole nafate for 3 postoperative days. Transplanted recipients were given water 3 hours after surgery, and were fed 24 hours after surgery.
Four groups of animals were examined in this study, two of which received a SITx. Group 1 consisted of unoperated normal rats. Group 2 animals were exposed to CO with no surgery. In Group 3, syngeneic SITx were performed and the recipients kept in room air. Group 4 consisted of SITx recipients that were placed in the CO chamber for 1 hour before surgery and then re-exposed to CO immediately following surgery until sacrificed. In both Groups 3 and 4, normal LEW rats served as donors.
The animals were exposed to CO at a concentration of 250 ppm. Briefly, 1% CO in air was mixed with air (21% oxygen) in a stainless steel mixing cylinder and then directed into a 3.70 ft^3 glass exposure chamber at a flow rate of 12 L/min. A CO analyzer (Interscan, Chatsworth, Calif.) was used to measure CO levels continuously in the chamber. CO concentrations were maintained at 250 ppm at all times. The animals were supplied food and water during the exposures.
The effect of CO treatment on intestinal dysmotility in transplanted grafts was assessed both in vitro and in vivo. […] In vitro circular muscle mechanical activity was measured as previously described (Eskandari et al., Am. J. Physiol. 273(3 Pt 1):G727-34 (1997)). Rats were anesthetized and killed by exsanguination 24 hours post-operatively. A segment of mid-jejunum was pinned in a Sylgaard™ lined dissecting dish containing pre-oxygenated Krebs-Ringer-bicarbonate buffer (KRB; in mM: 137.4 Na^+, 5.9 K^+, 2.5 Ca^2+, 1.2 Mg^2+, 134 Cl^−, 15.5 HCO3^−, 1.2 H2PO4^−, and 11.5 glucose) that was equilibrated with 97% O2/3% CO2. The intestine was opened along the mesenteric border and the mucosa removed by stripping with fine forceps. Full-thickness strips of muscularis (1×6 mm) were cut parallel to the circular muscle layer. Muscle strips were mounted in standard horizontal mechanical organ chambers that were continuously superfused with pre-oxygenated KRB maintained at 37° C. One end of each strip was attached by ligature to a fixed post and the other to an isometric force transducer (WPI, Sarasota, Fla.). Strips were allowed to equilibrate for 1 hour, after which they were incrementally stretched to the length at which maximal spontaneous contraction occurred (Lo). […] Contractile activity was calculated by integrating the area under the trace, normalized by converting the weight and length of the strip to square millimeters of tissue (1.03 mg/mm^2), and reported as g/s/mm^2.

With `[C-]#[O+]` [CO, carbon monoxide] the “IL-10 gene expression relative to controls” value ([1]; CO treated manipulated animals, 3 hr time point) was 43 fold, the “IL-10 gene expression, increase over manipulation alone” value ([1]; IM + CO vs IM, 3 hr) was 300% and the IL-10 message ([1]; IM + CO vs IM, 3 hr but not 6 hr after surgery) was “increased”. The IL-10 expression ([1]; control mice, CO inhalation alone, 3 and 6 hr) was “significant increase; also recorded: significantly increased”, the peak contractile force ([2]; SITx + CO 250 ppm, 100 μM bethanechol) was 3.6±0.7 g/mm^2/s and the Contractile force ([2]; SITx + CO, Table 2) was 3.0 ± 0.4 g/s/mm^2. The spontaneous contractile activity ([2]; transplanted (SITx) rats, CO 250 ppm, 24 hours after reperfusion) was “restored”, the peak contractile force ([2]; unoperated animals treated with CO 250 ppm, bethanechol) was 3.2±0.5 g/mm^2/s and the spontaneous contractile activity ([2]; unoperated control rats, CO 250 ppm for 24 hours) was “no effect”.
